Measurements reported in patent US20230404976A1, “PHARMACEUTICAL COMBINATION CONTAINING CAPSID PROTEIN INHIBITOR AND NUCLEOSIDE ANALOG” (priority 2020, published 2023).

Test system: HBV DNA in mouse serum (rAAV8-1.3HBV, type D, ayw)
Test: AAV/HBV mouse model: qPCR quantification of HBV DNA in mouse serum
Assay type: in vivo, C57BL/6 mice
Conditions: for HBV DNA (log10, copy/μL) time (days) post-dose: 3: day 3; for HBV DNA (log10, copy/μL) time (days) post-dose: 3 / HBV DNA (log10, copy/μL) time (days) post-dose: 7 / HBV DNA (log10, copy/μL) time (days) post-dose: 14 / HBV DNA (log10, copy/μL) time (days) post-dose: 21 / HBV DNA (log10, copy/μL) time (days) post-dose: 28: i.g. days 0-27; for HBV DNA (log10, copy/μL) time (days) post-dose: 7: day 7; for HBV DNA (log10, copy/μL) time (days) post-dose: 14: day 14; for HBV DNA (log10, copy/μL) time (days) post-dose: 21: day 21; for HBV DNA (log10, copy/μL) time (days) post-dose: −1: day −1 (before first dose)
Procedure: Male C57BL/6 mice, 5 weeks old, free of specific pathogens, purchased from Shanghai Slac Laboratory Animal Co., Ltd., housed in independent ventilated cages. The mice were acclimatized for 3 days and then injected with the AAV/HBV virus.
rAAV8-1.3HBV (type D, ayw) was purchased from FivePlus, Beijing. It was diluted with sterile PBS to 5×10^11 v.g./mL before experiment. Each mouse was injected with 200 μL, i.e., 1×10^11 v.g.
AAV/HBV injection: rAAV8-1.3HBV was prepared into a 1×10^11 v.g./200 μL solution with sterile PBS in advance before injection. Mice were injected with 200 μL of the rAAV8-1.3HBV solution via the tail vein.
Grouping: On day 27 post virus injection, according to the serum HBV DNA, HBeAg and HBsAg results on days 14 and 21, the mice were randomized into groups of 8 or 4 and correspondingly treated according to the experimental design.
Group number: • i. Solvent group; • ii. Monotherapy group: entecavir; • iii. Monotherapy group: the compound of formula I 3 mpk; • iv. Combination group (combo): the compound of formula I 3 mpk and entecavir; • v. Monotherapy group: the compound of formula I 10 mpk; • vi. Combination group (combo): the compound of formula I 10 mpk and entecavir.
Compound treatment: On day 28 post infection, all mice were intragastrically administered a solvent or compound. The day of the first administration was counted as day 0 of experiment, and the duration of administration was from day 0 to day 27. Entecavir was administered once daily (QD) and the compound of formula I was administered twice daily (BID, 8 hr/16 hr apart). The administration volume was 10 mL/kg.
Non-endpoint blood collection: On day −1, 3, 7, 14, 21, 28, 35 or 42, about 120 μL of blood was collected from the submandibular vein, and serum was collected and assayed for HBV DNA. If blood collection and administration were on the same day, blood collection was performed about 5 hours after the first administration on that day.
Endpoints of experiment: mice in groups i-iv were euthanized on day 28. Blood was collected from the hearts of the mice, and serum was collected and assayed for HBV DNA. The endpoints of experiment for groups v and vi were on day 42.
qPCR Quantification of HBV DNA in mouse serum: The DNA was extracted from serum, and the experiment was performed by following the instructions for QIAamp 96 DNA Blood Kit. qPCR conditions: 95 ° C., 10 min, 1 cycle; 95° C., 15 s; 60° C., 1 min; 40 cycles.
Data were expressed as mean ±standard error, and statistical analysis was performed using Student t test.

[1] = entecavir 0.001 mg/kg QD, compound of formula I 3 mg/kg BID, mean ± standard error, LLOQ 2.08
[2] = day 28 (endpoint), entecavir 0.001 mg/kg QD, compound of formula I 3 mg/kg BID, mean ± standard error, LLOQ 2.08
[3] = Table 4 groups: entecavir 0.001 mg/kg QD, compound of formula I 3 mg/kg BID, i.g., mean ± standard error
[4] = compound of formula I 10 mg/kg BID, entecavir 0.001 mg/kg QD, values below LLOQ expressed as 2.08

Structure (SMILES) | HBV DNA (log10, copy/μL) time (days) post-dose: 3 [1] | HBV DNA (log10, copy/μL) time (days) post-dose: 7 [1] | HBV DNA (log10, copy/μL) time (days) post-dose: 14 [1] | HBV DNA (log10, copy/μL) time (days) post-dose: 21 [1] | HBV DNA (log10, copy/μL) time (days) post-dose: 28 [2] | HBV DNA (log10, copy/μL) time (days) post-dose: −1 [3] | HBV DNA (log10, copy/μL) time (days) post-dose: 14 [4] | HBV DNA (log10, copy/μL) time (days) post-dose: 21 [4] | HBV DNA (log10, copy/μL) time (days) post-dose: 28 (day 28, compound of formula I 10 mg/kg BID, entecavir 0.001 mg/kg QD, values below LLOQ expressed as 2.08) | HBV DNA (log10, copy/μL) time (days) post-dose: 31 (day 31 (after end of dosing on day 27), compound of formula I 10 mg/kg BID, entecavir 0.001 mg/kg QD, i.g., LLOQ 2.08) | HBV DNA (log10, copy/μL) time (days) post-dose: 35 (day 35 (after end of dosing on day 27), compound of formula I 10 mg/kg BID, entecavir 0.001 mg/kg QD, i.g., LLOQ 2.08) | HBV DNA (log10, copy/μL) time (days) post-dose: 42 (day 42 (endpoint, after end of dosing on day 27), compound of formula I 10 mg/kg BID, entecavir 0.001 mg/kg QD, i.g., LLOQ 2.08) | HBV DNA (log10, copy/μL) time (days) post-dose: −1 (Table 5 groups: compound of formula I 10 mg/kg BID, entecavir 0.001 mg/kg QD, i.g., mean ± standard error)
C=C1[C@H](CO)[C@@H](O)C[C@@H]1n1cnc2c(=O)[nH]c(N)nc21 [Entecavir, 2-amino-9-[(1S,3R,4S)-4-hydroxy-3-hydroxymethyl-2-methylenecyclopentyl]-1,9-dihydro-6H-purin-6-one, reference compound] | 3.11 ± 0.10 log10, copy/μL | 2.69 ± 0.11 log10, copy/μL | 2.75 ± 0.13 log10, copy/μL | 2.79 ± 0.12 log10, copy/μL | 2.70 ± 0.17 log10, copy/μL | 4.19 ± 0.12 log10, copy/μL |  |  |  |  |  |  | 
C[C@]1(NC(=O)C(=O)c2c(Cl)c(C(=O)Nc3cc(F)c(F)c(F)c3)c3n2CCC3)CC[C@H](CC(=O)O)CC1 [Compound of formula I, 2-((1r,4r)-4-(2-(6-chloro-7((3,4,5-trifluorophenyl)carbamoyl)-2,3-dihydro-1H-pyrrolin-5-yl)-2-oxalylamino)-4-methylcyclohexyl)acetic acid] | 3.71 ± 0.10 log10, copy/μL | 3.63 ± 0.09 log10, copy/μL | 3.71 ± 0.06 log10, copy/μL | 3.61 ± 0.11 log10, copy/μL | 3.96 ± 0.11 log10, copy/μL | 4.46 ± 0.07 log10, copy/μL | 2.10 ± 0.02 log10, copy/μL | 2.08 ± 0.00 log10, copy/μL | 2.12 ± 0.04 log10, copy/μL | 3.56 ± 0.12 log10, copy/μL | 4.38 ± 0.09 log10, copy/μL | 4.64 ± 0.08 log10, copy/μL | 4.45 ± 0.07 log10, copy/μL
